According to the supplement of paper PMC10307832:

Columns and labels:
Test in all cases: relative viability (nuclei count vs DMSO), 5 days (fraction); higher = more cells survive
[1] = compound: C1=CC2=NC=CN=C2C=C1/C=C/3\C(=O)NC(=O)S3
Summary of the method: (§1)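 Lung cancer cell lines in 1536-well plates were exposed by pinning to five library-drug doses (not always all listed) √10 apart, following an overnight hold at 37 °C. MetaXpress counted Hoechst-stained nuclei from 4× images taken after 5 days without medium change. Viability is the median ratio of treated-well to vehicle-well nuclei across plates. Plates required control CV below 25% and at least one doubling.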

BGJ398 = compound: CCN1CCN(c2ccc(Nc3cc(N(C)C(=O)Nc4c(Cl)c(OC)cc(OC)c4Cl)ncn3)cc2)CC1 [BGJ398]
Summary of the method: as §1

[2] = compound: C1=CC2=NC=CN=C2C=C1/C=C/3\C(=O)NC(=O)S3 + CCNC(=O)c1noc(-c2cc(C(C)C)c(O)cc2O)c1-c1ccc(CN2CCOCC2)cc1 [Luminespib] (partner 0.01 µM)
Summary of the method: (§2)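 A single step with final 0.05% Triton X-100, 1% formaldehyde and 1 ug/ml Hoechst fixed the cells and stained nuclei 5 days after treatment. Lung cancer cell lines in 1536-well plates had been treated by pin tool the day after seeding with one drug alone or a fixed anchor-drug dose plus five library-drug doses (not always all listed) in √10 steps, and nuclei were counted on 4× images. Relative viability is the ratio of nuclei in treated wells to nuclei in vehicle wells, taken as the median of duplicate plates.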

[3] = compound: C1=CC2=NC=CN=C2C=C1/C=C/3\C(=O)NC(=O)S3 + COc1cc2c(Oc3ccc(NC(=O)C4(C(=O)Nc5ccc(F)cc5)CC4)cc3F)ccnc2cc1OCCCN1CCOCC1 [Foretinib] (partner 0.25 µM)
Summary of the method: as §2

[4] = compound: C1=CC2=NC=CN=C2C=C1/C=C/3\C(=O)NC(=O)S3 + COc1cccc2cc(-c3nc([C@H]4CC[C@H](C(=O)O)CC4)n4ncnc(N)c34)[nH]c12 [OSI-027] (partner 0.5 µM)
Summary of the method: as §2

[5] = compound: C1=CC2=NC=CN=C2C=C1/C=C/3\C(=O)NC(=O)S3 + Cc1cc(Nc2cc(N3CCN(C)CC3)nc(Sc3ccc(NC(=O)C4CC4)cc3)n2)n[nH]1 [Tozasertib] (partner 0.1 µM)
Summary of the method: as §2

[6] = compound: C1=CC2=NC=CN=C2C=C1/C=C/3\C(=O)NC(=O)S3 + Cc1nc(Nc2ncc(C(=O)Nc3c(C)cccc3Cl)s2)cc(N2CCN(CCO)CC2)n1 [Dasatinib] (partner 0.075 µM)
Summary of the method: as §2

[7] = compound: C1=CC2=NC=CN=C2C=C1/C=C/3\C(=O)NC(=O)S3 + N=C(N)NC(=N)NCCc1ccccc1 [Phenformin] (partner 250 µM)
Summary of the method: as §2

BGJ398 + Luminespib = compound: CCN1CCN(c2ccc(Nc3cc(N(C)C(=O)Nc4c(Cl)c(OC)cc(OC)c4Cl)ncn3)cc2)CC1 [BGJ398] + CCNC(=O)c1noc(-c2cc(C(C)C)c(O)cc2O)c1-c1ccc(CN2CCOCC2)cc1 [Luminespib] (partner 0.01 µM)
Summary of the method: as §2

BGJ398 + Foretinib = compound: CCN1CCN(c2ccc(Nc3cc(N(C)C(=O)Nc4c(Cl)c(OC)cc(OC)c4Cl)ncn3)cc2)CC1 [BGJ398] + COc1cc2c(Oc3ccc(NC(=O)C4(C(=O)Nc5ccc(F)cc5)CC4)cc3F)ccnc2cc1OCCCN1CCOCC1 [Foretinib] (partner 0.25 µM)
Summary of the method: as §2

BGJ398 + OSI-027 = compound: CCN1CCN(c2ccc(Nc3cc(N(C)C(=O)Nc4c(Cl)c(OC)cc(OC)c4Cl)ncn3)cc2)CC1 [BGJ398] + COc1cccc2cc(-c3nc([C@H]4CC[C@H](C(=O)O)CC4)n4ncnc(N)c34)[nH]c12 [OSI-027] (partner 0.5 µM)
Summary of the method: as §2

BGJ398 + Tozasertib = compound: CCN1CCN(c2ccc(Nc3cc(N(C)C(=O)Nc4c(Cl)c(OC)cc(OC)c4Cl)ncn3)cc2)CC1 [BGJ398] + Cc1cc(Nc2cc(N3CCN(C)CC3)nc(Sc3ccc(NC(=O)C4CC4)cc3)n2)n[nH]1 [Tozasertib] (partner 0.1 µM)
Summary of the method: as §2

BGJ398 + Dasatinib = compound: CCN1CCN(c2ccc(Nc3cc(N(C)C(=O)Nc4c(Cl)c(OC)cc(OC)c4Cl)ncn3)cc2)CC1 [BGJ398] + Cc1nc(Nc2ncc(C(=O)Nc3c(C)cccc3Cl)s2)cc(N2CCN(CCO)CC2)n1 [Dasatinib] (partner 0.075 µM)
Summary of the method: as §2

BGJ398 + Phenformin = compound: CCN1CCN(c2ccc(Nc3cc(N(C)C(=O)Nc4c(Cl)c(OC)cc(OC)c4Cl)ncn3)cc2)CC1 [BGJ398] + N=C(N)NC(=N)NCCc1ccccc1 [Phenformin] (partner 250 µM)
Summary of the method: as §2

NCI-H1623
relative viability ([1]; 0.02 µM): 0.936 | relative viability ([1]; 0.06325 µM): 0.806 | relative viability ([1]; 0.2 µM): 0.909 | relative viability ([1]; 0.6325 µM): 0.957 | relative viability ([1]; 2 µM): 0.786 | relative viability (BGJ398; 0.01 µM): 1.08 | relative viability (BGJ398; 0.03162 µM): 0.805 | relative viability (BGJ398; 0.1 µM): 1.05 | relative viability (BGJ398; 0.3162 µM): 0.908 | relative viability (BGJ398; 1 µM): 1.03 | relative viability ([2]; first compound 0.02 µM): 0.379 | relative viability ([2]; first compound 0.06325 µM): 0.431 | relative viability ([2]; first compound 0.2 µM): 0.474 | relative viability ([2]; first compound 0.6325 µM): 0.47 | relative viability ([2]; first compound 2 µM): 0.335 | relative viability ([3]; first compound 0.02 µM): 0.756 | relative viability ([3]; first compound 0.06325 µM): 0.855 | relative viability ([3]; first compound 0.2 µM): 0.953 | relative viability ([3]; first compound 0.6325 µM): 0.82 | relative viability ([3]; first compound 2 µM): 0.799 | relative viability ([4]; first compound 0.02 µM): 0.411 | relative viability ([4]; first compound 0.06325 µM): 0.415 | relative viability ([4]; first compound 0.2 µM): 0.419 | relative viability ([4]; first compound 0.6325 µM): 0.421 | relative viability ([4]; first compound 2 µM): 0.253 | relative viability ([5]; first compound 0.02 µM): 0.405 | relative viability ([5]; first compound 0.06325 µM): 0.413 | relative viability ([5]; first compound 0.2 µM): 0.473 | relative viability ([5]; first compound 0.6325 µM): 0.403 | relative viability ([5]; first compound 2 µM): 0.38 | relative viability ([6]; first compound 0.02 µM): 0.511 | relative viability ([6]; first compound 0.06325 µM): 0.523 | relative viability ([6]; first compound 0.2 µM): 0.526 | relative viability ([6]; first compound 0.6325 µM): 0.524 | relative viability ([6]; first compound 2 µM): 0.422 | relative viability ([7]; first compound 0.02 µM): 0.553 | relative viability ([7]; first compound 0.06325 µM): 0.675 | relative viability ([7]; first compound 0.2 µM): 0.622 | relative viability ([7]; first compound 0.6325 µM): 0.608 | relative viability ([7]; first compound 2 µM): 0.494 | relative viability (BGJ398 + Luminespib; first compound 0.01 µM): 0.544 | relative viability (BGJ398 + Luminespib; first compound 0.03162 µM): 0.434 | relative viability (BGJ398 + Luminespib; first compound 0.1 µM): 0.501 | relative viability (BGJ398 + Luminespib; first compound 0.3162 µM): 0.472 | relative viability (BGJ398 + Luminespib; first compound 1 µM): 0.483 | relative viability (BGJ398 + Foretinib; first compound 0.01 µM): 0.907 | relative viability (BGJ398 + Foretinib; first compound 0.03162 µM): 0.723 | relative viability (BGJ398 + Foretinib; first compound 0.1 µM): 0.937 | relative viability (BGJ398 + Foretinib; first compound 0.3162 µM): 0.84 | relative viability (BGJ398 + Foretinib; first compound 1 µM): 0.713 | relative viability (BGJ398 + OSI-027; first compound 0.01 µM): 0.45 | relative viability (BGJ398 + OSI-027; first compound 0.03162 µM): 0.384 | relative viability (BGJ398 + OSI-027; first compound 0.1 µM): 0.414 | relative viability (BGJ398 + OSI-027; first compound 0.3162 µM): 0.386 | relative viability (BGJ398 + OSI-027; first compound 1 µM): 0.452 | relative viability (BGJ398 + Tozasertib; first compound 0.01 µM): 0.427 | relative viability (BGJ398 + Tozasertib; first compound 0.03162 µM): 0.407 | relative viability (BGJ398 + Tozasertib; first compound 0.1 µM): 0.448 | relative viability (BGJ398 + Tozasertib; first compound 0.3162 µM): 0.455 | relative viability (BGJ398 + Tozasertib; first compound 1 µM): 0.447 | relative viability (BGJ398 + Dasatinib; first compound 0.01 µM): 0.586 | relative viability (BGJ398 + Dasatinib; first compound 0.03162 µM): 0.525 | relative viability (BGJ398 + Dasatinib; first compound 0.1 µM): 0.564 | relative viability (BGJ398 + Dasatinib; first compound 0.3162 µM): 0.525 | relative viability (BGJ398 + Dasatinib; first compound 1 µM): 0.478 | relative viability (BGJ398 + Phenformin; first compound 0.01 µM): 0.641 | relative viability (BGJ398 + Phenformin; first compound 0.03162 µM): 0.427 | relative viability (BGJ398 + Phenformin; first compound 0.1 µM): 0.619 | relative viability (BGJ398 + Phenformin; first compound 0.3162 µM): 0.548 | relative viability (BGJ398 + Phenformin; first compound 1 µM): 0.497
